From patent US20100286024A1, “Insulinotropic compounds and uses thereof” (priority 2005, published 2010)

How the values were obtained:
[1] = Control study: chemical stability in PBS/triethanolamine without DPP-IV; assay type: physicochemical; settings: PBS/triethanolamine solution without DPP-IV, PBS/TEthA, pH 7.5, 37°, no DPP-IV, read-out: percentage of peptide remaining
Description: In the control study, peptides were incubated with PBS/triethanolamine solution in the absence of DPP-IV to measure their chemical stability.

beta TC-6 cell line = test: Insulin release assay (insulin ELISA); assay type: cell-based, mouse; settings: for Insulin release: 5 mM glucose, 30 minutes, Beta-TC-6 cells, cells only 1.37-3.67
Description: This was derived from a pancreatic tumor (insulinoma) arising in a transgenic mouse.
Beta-TC-6 cells were purchased from A.T.C.C. (A.T.C.C. number CCL-11506; Manassas, Va., U.S.A.). Beta-TC-6 cells were cultured in Dulbecco's Modified Eagle's medium supplemented with 15% (v/v) heat-inactivated foetal bovine serum, 1% (v/v) glutamine, 0.45% (w/v) glucose and 0.15% (w/v) sodium bicarbonate at 37° C. in a humidified 5% CO2 atmosphere. Beta-TC-6 cells form islands and the monolayer never becomes confluent; cells were passaged at 70% confluence (7 days from seeding) at a subcultivation ratio of 1:4. The monolayer was disrupted from the surface of the culture flask with 0.25% (w/v) Trypsin-0.53 mM EDTA.
Beta-TC-6 cells were cultured in 12 well plates for between 4-8 days prior to use. Cells were cultured in Krebs-Ringer (10 mM Hepes, pH 7.4, 136 mM NaCl, 4.7 mM KCl and 1.25 mM MgSO4) supplemented with 5 mM glucose for 1 hr at 37° C. in a humidified 5% CO2 atmosphere. This medium was removed, cells washed with Krebs-Ringer. Beta-TC-6 cells were then cultured in 1 ml per well of Krebs-Ringer supplemented with 5 mM glucose and 0, 0.12, 0.6, 3 and 15 μM of peptide in duplicate for 30 minutes at 37° C. in a humidified 5% CO2 atmosphere. Medium was removed, diluted 1:5, and insulin concentration determined using an insulin ELISA kit (Mercodia, Uppsala, Sweden) according to the manufacturer's protocol. Beta-TC-6 cells were washed three times with ice-cold PBS and extracted into 0.5 ml lysis buffer (62.5 mM Tris, pH 7.5, and 1%, v/v, SDS) per well. Protein concentration was determined by Lowry assay. […] Only single-sided p values are shown.

DPP-IV [2] = test: Dipeptidyl Peptidase IV (DPP-IV) digestion, stability by RP-HPLC (Example 10); assay type: in vitro ADME; settings: DPP-IV (isolated peptidase); pH 7.5, 37° C., DPP-IV, 22 hr; new species at 3220 mu, loss of the His-Ala dimer; read-out: share hydrolyzed by DPP-IV within 22 hr
Description: (§1) Their stabilities were monitored by RP-HPLC, noting the disappearance of the intact sequence and appearance of a species missing the N terminal dipeptide or similar fragment.

DPP-IV [3] = biological target: DPP-IV (Homo sapiens, UniProt P27487); test: as above; assay type: in vitro ADME
Chain of DPP-IV (Homo sapiens, UniProt P27487) (P27487 whole entry, species assumed): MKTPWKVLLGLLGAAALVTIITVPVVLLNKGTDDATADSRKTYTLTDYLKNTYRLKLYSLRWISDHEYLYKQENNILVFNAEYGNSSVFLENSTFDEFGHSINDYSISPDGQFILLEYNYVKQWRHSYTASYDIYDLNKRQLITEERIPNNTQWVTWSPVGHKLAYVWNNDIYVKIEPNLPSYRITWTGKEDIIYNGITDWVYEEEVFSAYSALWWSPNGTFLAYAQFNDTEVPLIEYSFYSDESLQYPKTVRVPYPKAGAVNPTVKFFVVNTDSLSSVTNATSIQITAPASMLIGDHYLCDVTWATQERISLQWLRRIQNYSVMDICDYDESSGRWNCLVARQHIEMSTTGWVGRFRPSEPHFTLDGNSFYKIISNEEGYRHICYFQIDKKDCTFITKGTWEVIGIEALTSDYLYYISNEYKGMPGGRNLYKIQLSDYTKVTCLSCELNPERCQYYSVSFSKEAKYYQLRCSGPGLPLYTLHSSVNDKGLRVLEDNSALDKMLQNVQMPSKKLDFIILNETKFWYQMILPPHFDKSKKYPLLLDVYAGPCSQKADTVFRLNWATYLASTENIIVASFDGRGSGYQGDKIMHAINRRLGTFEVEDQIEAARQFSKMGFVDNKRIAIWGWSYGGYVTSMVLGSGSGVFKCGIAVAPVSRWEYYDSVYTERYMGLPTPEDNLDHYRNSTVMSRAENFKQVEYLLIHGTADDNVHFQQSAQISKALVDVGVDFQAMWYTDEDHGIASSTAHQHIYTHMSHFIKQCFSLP
Description: as §1

remaining at 22 h ([1]; 22 hr): 95%
remaining at 47 h ([1]; 47 hr): 95%
metabolised at 22 h (DPP-IV [2]): > 90%
remaining at 22 h (DPP-IV [3]; DPP-IV (isolated peptidase), PBS/TEthA, pH 7.5, 37°, DPP-IV, 22 hr, read-out: percentage of analogue remaining): < 5%
remaining at 47 h (DPP-IV [3]; DPP-IV (isolated peptidase), PBS/TEthA, pH 7.5, 37°, DPP-IV, 47 hr, read-out: percentage of analogue remaining): < 5%
susceptibility to DPP-IV hydrolysis (DPP-IV [3]; pH 7.5, 37° C., up to 47 hr): susceptible to DPP-IV hydrolysis
Compound: CC[C@H](C)[C@H](NC(=O)[C@H](Cc1ccccc1)NC(=O)[C@H](CCC(=O)O)NC(=O)[C@H](CCCCN)NC(=O)[C@H](C)NC(=O)[C@H](C)NC(=O)[C@H](CCC(N)=O)NC(=O)CNC(=O)[C@H](CCC(=O)O)NC(=O)[C@H](CC(C)C)NC(=O)[C@H](Cc1ccc(O)cc1)NC(=O)[C@H](CO)NC(=O)[C@H](CO)NC(=O)[C@@H](NC(=O)[C@H](CC(=O)O)NC(=O)[C@H](CO)NC(=O)[C@@H](NC(=O)[C@H](Cc1ccccc1)NC(=O)[C@@H](NC(=O)CNC(=O)[C@H](CCC(=O)O)NC(=O)CNNC(=O)[C@H](C)NC(=O)[C@@H](N)Cc1c[nH]cn1)[C@@H](C)O)[C@@H](C)O)C(C)C)C(=O)N[C@@H](C)C(=O)N[C@@H](Cc1c[nH]c2ccccc12)C(=O)N[C@@H](CC(C)C)C(=O)N[C@H](C(=O)N[C@@H](CCCCN)C(=O)NCC(=O)N[C@@H](CCCNC(=N)N)C(=O)NCC(=O)O)C(C)C [SP007, L-His-L-Ala-NH—NH—CH2—C(O)-Glu9-37]
Insulin release (beta TC-6 cell line; 3 μM peptide): 4.51 ng/min/mg
Activity of 3 μM of each peptide as percentage of insulin release by cells only (beta TC-6 cell line; 3 μM peptide, cells alone=100%): 113 ± 65%
Insulin release (beta TC-6 cell line; 15 μM peptide): 8.08 ng/min/mg
Activity of 15 μM of each peptide as percentage of insulin release by cells only (beta TC-6 cell line; 15 μM peptide, cells alone=100%): 235 ± 91%
